# From patent publication US8883745B2, “C—glycolipids with enhanced Th-1 profile” (New York University, priority 2006, dated 2014)
# Key:
# IL-12 = IL-12 levels in sera upon i.v. glycolipid administration to BALB/c mice (ELISA); format: in vivo; design: IL-12 levels, test 1 / IL-12 levels, test 2 / IL-12 levels, average / IL-12 levels, Total: unit not given here; conditions: for IL-12/IL-4 (BALB/c): ratio calculated from Tables 1-6; for IL-12 levels, average / IL-12 levels, test 1 / IL-12 levels, test 2 / IL-12 levels, Total: serum; for IL-12 levels, Total: total over hours 0-72
# Description: (§1) Five- to six-week-old female C57BL/6 mice and BALB/c mice were purchased from Taconic. Each glycolipid was stored at 1 mg/ml in 100% DMSO. Mice were injected intravenously with 1 μg of each glyocolipid diluted in 200 μL sterile phosphate buffered saline (PBS). At indicated time points, sera were collected from each animal, and concentrations of IFN-γ, IL-4, and IL-12 in the sera were evaluated by enzyme-linked immunosorbent assay (ELISA). Serum concentrations of IFN-γ, IL-4, and IL-12 were evaluated using an ELISA kit (eBioscience, San Diego, Calif.). Briefly, 96 well flat-bottom ELISA plates (NUNC) were coated with capture antibody according to the manufacture's recommendation and incubated overnight at 4° C. The plates were washed with PBS+0.05% Tween 20 (PBS-T), then incubated with manufacturer provided blocking solution for 1 hr at room temperature to block non-specific binding sites. After washing with PBS-T, sera diluted 1:10 was added to the wells and incubated for 2 hrs at room temperature. Plates were then incubated at room temperature for 1 hr with biotintylated detection antibody, washed, incubated with avidin conjugated to horse radish peroxidase (HRP) for 30 min at room temperature, washed, and finally incubated with tetramethylbenzidine substrate solution in the dark for 10 minutes at room temperature. The antibodies, avidin-HRP, and substrate solution were all diluted according to the manufacture's recommendation. Reactions were stopped with 2.0N sulfuric acid and the cytokine concentration in each well was determined by comparing the absorbance at 450 nm in each well to known standards. The levels of Th1- and Th2-type cytokines were determined in two different genetic backgrounds, i.e., in C57BL/6 mice and BALB/c mice. The following compounds were administered: A=compound (A-1 trans-conformer), B=compound (A-2), C=compound (A-3), D=compound (A-4), E=compound (A-5), Z=control (PBS alone), CRONY=α-C-GalCer, KRN=α-GalCer, GCK109 (A-1 trans-conformer), GCK151 (A-1 cis-conformer), GCK152 (A-7). The levels of cytokines were measured at 0, 2, 6, 12, 24, 48, and 72 hours after the compound administration. The levels of Th1-type cytokines IFN-γ and IL-12 are summarized in FIGS. 2A-C and 3A-C, respectively. Table 7 provides IFN-γ/IL-4 and IL-12/IL-4 ratios for various compounds, which can be used as indicators of their ability to selectively stimulate Th1-type immune responses.
# IL-4 = IL-4 levels in sera upon i.v. glycolipid administration to BALB/c mice (ELISA); format: in vivo; design: unit not given here; conditions: for IL-4 level, Total: total over hours 0-72
# Description: as §1
structure (smiles),measurement,setting,value
CCCCCCCCCCCCCCCCCC/C=C/CCCCCCCCC(=O)N[C@@H](/C=C/[C@H]1O[C@H](CO)[C@H](O)[C@H](O)[C@H]1O)[C@H](O)[C@H](O)CCCCCCCCCCCCCC [A-1],IL-12/IL-4 (BALB/c),IL-12,21
same,"IL-12 levels, average",IL-12; hour 0,5
same,"IL-12 levels, test 1",IL-12; hour 0,5
same,"IL-12 levels, test 2",IL-12; hour 0,5
same,"IL-12 levels, average",IL-12; hour 2,119.5
same,"IL-12 levels, test 1",IL-12; hour 2,0
same,"IL-12 levels, test 2",IL-12; hour 2,239
same,"IL-12 levels, average",IL-12; hour 6,6981
same,"IL-12 levels, test 1",IL-12; hour 6,7064
same,"IL-12 levels, test 2",IL-12; hour 6,6898
same,"IL-12 levels, average",IL-12; hour 12,7001
same,"IL-12 levels, test 1",IL-12; hour 12,7513
same,"IL-12 levels, test 2",IL-12; hour 12,6489
same,"IL-12 levels, average",IL-12; hour 24,306
same,"IL-12 levels, test 1",IL-12; hour 24,299
same,"IL-12 levels, test 2",IL-12; hour 24,313
same,"IL-12 levels, average",IL-12; hour 48,0
same,"IL-12 levels, test 1",IL-12; hour 48,0
same,"IL-12 levels, test 2",IL-12; hour 48,0
same,"IL-12 levels, average",IL-12; hour 72,48.5
same,"IL-12 levels, test 1",IL-12; hour 72,0
same,"IL-12 levels, test 2",IL-12; hour 72,97
same,"IL-12 levels, Total",IL-12,14462
same,"IL-4 level, average",IL-4; hour 0,27
same,"IL-4 level, test 1",IL-4; hour 0,27
same,"IL-4 level, test 2",IL-4; hour 0,27
same,"IL-4 level, average",IL-4; hour 2,431.5
same,"IL-4 level, test 1",IL-4; hour 2,358
same,"IL-4 level, test 2",IL-4; hour 2,505
same,"IL-4 level, average",IL-4; hour 6,95.5
same,"IL-4 level, test 1",IL-4; hour 6,85
same,"IL-4 level, test 2",IL-4; hour 6,106
same,"IL-4 level, average",IL-4; hour 12,51
same,"IL-4 level, test 1",IL-4; hour 12,52
same,"IL-4 level, test 2",IL-4; hour 12,50
same,"IL-4 level, average",IL-4; hour 24,41.5
same,"IL-4 level, test 1",IL-4; hour 24,40
same,"IL-4 level, test 2",IL-4; hour 24,43
same,"IL-4 level, average",IL-4; hour 48,44
same,"IL-4 level, test 1",IL-4; hour 48,46
same,"IL-4 level, test 2",IL-4; hour 48,42
same,"IL-4 level, average",IL-4; hour 72,4
same,"IL-4 level, test 1",IL-4; hour 72,4
same,"IL-4 level, test 2",IL-4; hour 72,4
same,"IL-4 level, Total",IL-4,696
"CCCCCCCCCCCCCCCCCCCCCCCCCCCCC(=O)N[C@@H](/C=C/[C@H]1O[C@H](CO)[C@H](O)[C@H](O)[C@H]1O)[C@H](O)[C@H](O)CCCCCCCCCCCCCC [A-2, (3S,4S,5R)-1-C-(α-D-galactopyranosyl)-3-(N-nonacosanoylamino)-4,5-nonadec-(1,2-E)-enediol]",IL-12/IL-4 (BALB/c),IL-12,30
same,"IL-12 levels, average",IL-12; hour 0,5
same,"IL-12 levels, test 1",IL-12; hour 0,5
same,"IL-12 levels, test 2",IL-12; hour 0,5
same,"IL-12 levels, average",IL-12; hour 2,74
same,"IL-12 levels, test 1",IL-12; hour 2,141
same,"IL-12 levels, test 2",IL-12; hour 2,7
same,"IL-12 levels, average",IL-12; hour 6,7251.5
same,"IL-12 levels, test 1",IL-12; hour 6,7080
same,"IL-12 levels, test 2",IL-12; hour 6,7423
same,"IL-12 levels, average",IL-12; hour 12,10800
same,"IL-12 levels, test 1",IL-12; hour 12,11600
same,"IL-12 levels, test 2",IL-12; hour 12,10000
same,"IL-12 levels, average",IL-12; hour 24,442.5
same,"IL-12 levels, test 1",IL-12; hour 24,454
same,"IL-12 levels, test 2",IL-12; hour 24,431
same,"IL-12 levels, average",IL-12; hour 48,66.5
same,"IL-12 levels, test 1",IL-12; hour 48,0
same,"IL-12 levels, test 2",IL-12; hour 48,133
same,"IL-12 levels, average",IL-12; hour 72,222.5
same,"IL-12 levels, test 1",IL-12; hour 72,3
same,"IL-12 levels, test 2",IL-12; hour 72,442
same,"IL-12 levels, Total",IL-12,18864
same,"IL-4 level, average",IL-4; hour 0,27
same,"IL-4 level, test 1",IL-4; hour 0,27
same,"IL-4 level, test 2",IL-4; hour 0,27
same,"IL-4 level, average",IL-4; hour 2,330
same,"IL-4 level, test 1",IL-4; hour 2,263
same,"IL-4 level, test 2",IL-4; hour 2,397
same,"IL-4 level, average",IL-4; hour 6,127
same,"IL-4 level, test 1",IL-4; hour 6,90
same,"IL-4 level, test 2",IL-4; hour 6,164
same,"IL-4 level, average",IL-4; hour 12,49.5
same,"IL-4 level, test 1",IL-4; hour 12,48
same,"IL-4 level, test 2",IL-4; hour 12,51
same,"IL-4 level, average",IL-4; hour 24,45.5
same,"IL-4 level, test 1",IL-4; hour 24,43
same,"IL-4 level, test 2",IL-4; hour 24,48
same,"IL-4 level, average",IL-4; hour 48,40.5
same,"IL-4 level, test 1",IL-4; hour 48,42
same,"IL-4 level, test 2",IL-4; hour 48,39
same,"IL-4 level, average",IL-4; hour 72,2
same,"IL-4 level, test 1",IL-4; hour 72,2
same,"IL-4 level, test 2",IL-4; hour 72,2
same,"IL-4 level, Total",IL-4,623
CCCCCCCCCCCCCCCCC/C=C/CCCCCCCCC(=O)N[C@@H](CC[C@H]1O[C@H](CO)[C@H](O)[C@H](O)[C@H]1O)[C@H](O)[C@H](O)CCCCCCCCCCCCCC [A-3],IL-12/IL-4 (BALB/c),IL-12,9
same,"IL-12 levels, average",IL-12; hour 0,5
same,"IL-12 levels, test 1",IL-12; hour 0,5
same,"IL-12 levels, test 2",IL-12; hour 0,5
same,"IL-12 levels, average",IL-12; hour 2,240
same,"IL-12 levels, test 1",IL-12; hour 2,362
same,"IL-12 levels, test 2",IL-12; hour 2,118
same,"IL-12 levels, average",IL-12; hour 6,1384.5
same,"IL-12 levels, test 1",IL-12; hour 6,1356
same,"IL-12 levels, test 2",IL-12; hour 6,1413
same,"IL-12 levels, average",IL-12; hour 12,3010.5
same,"IL-12 levels, test 1",IL-12; hour 12,3256
same,"IL-12 levels, test 2",IL-12; hour 12,2765
same,"IL-12 levels, average",IL-12; hour 24,161
same,"IL-12 levels, test 1",IL-12; hour 24,134
same,"IL-12 levels, test 2",IL-12; hour 24,188
same,"IL-12 levels, average",IL-12; hour 48,0
same,"IL-12 levels, test 1",IL-12; hour 48,0
same,"IL-12 levels, test 2",IL-12; hour 48,0
same,"IL-12 levels, average",IL-12; hour 72,75.5
same,"IL-12 levels, test 1",IL-12; hour 72,0
same,"IL-12 levels, test 2",IL-12; hour 72,151
same,"IL-12 levels, Total",IL-12,4878
same,"IL-4 level, average",IL-4; hour 0,27
same,"IL-4 level, test 1",IL-4; hour 0,27
same,"IL-4 level, test 2",IL-4; hour 0,27
same,"IL-4 level, average",IL-4; hour 2,307.5
same,"IL-4 level, test 1",IL-4; hour 2,273
same,"IL-4 level, test 2",IL-4; hour 2,342
same,"IL-4 level, average",IL-4; hour 6,54.5
same,"IL-4 level, test 1",IL-4; hour 6,56
same,"IL-4 level, test 2",IL-4; hour 6,53
same,"IL-4 level, average",IL-4; hour 12,48
same,"IL-4 level, test 1",IL-4; hour 12,44
same,"IL-4 level, test 2",IL-4; hour 12,52
same,"IL-4 level, average",IL-4; hour 24,44
same,"IL-4 level, test 1",IL-4; hour 24,44
same,"IL-4 level, test 2",IL-4; hour 24,44
same,"IL-4 level, average",IL-4; hour 48,43
same,"IL-4 level, test 1",IL-4; hour 48,48
same,"IL-4 level, test 2",IL-4; hour 48,38
same,"IL-4 level, average",IL-4; hour 72,12.23
same,"IL-4 level, test 1",IL-4; hour 72,12.23
same,"IL-4 level, test 2",IL-4; hour 72,12.23
same,"IL-4 level, Total",IL-4,538
